Measurements taken from patent publication US20250206722A1, “SMALL MOLECULE INHIBITORS OF TEA DOMAIN FAMILY MEMBERS” (The Scripps Research Institute, priority 2022, published 2025).

What was measured:
Type in all cases: cell-based
NCI-H226 cells [1] = experiment: NCI-H226 proliferation assay (Wuxi AppTec); settings: Homo sapiens, 168 h, 7 days, CellTiter-Glo, top dose 10, 3-fold dilution, 9 doses
Description: […] Proliferation Assay (From Wuxi AppTec CO.):
Day −1: Seeding cells • (1) Equilibrate cell culture medium to 37° C. • (2) Remove and discard the culture medium. • (3) Briefly rinse the cell layer with PBS to remove all traces of serum that contains […]. • (4) Add 2-3 mL of Trypsin-EDTA solution to flask and observe cells under an inverted microscope until cell layer is dispersed. • (5) Add 6-8 mL of growth medium to terminate the digestion of Trypsin/EDTA. • (6) Centrifuge the mixture (Trypsin EDTA and the growth medium) at 1000 rpm for 5 mins. • (7) Discard the supernatant, suspend the cell precipitation with the fresh growth medium, then take 1 mL the cell suspension to count cells with Vi-cell XR cell viability analyzer. • (8) Adjust the cell density to 500 cells/well for 384-well plates. • (9) Add 50 µL/well volume cell suspension to the assay plate. • (10) Add […] media to the control columns. • (11) Incubate the plate at 37° C., 5% CO2 for overnight. Day 0: Compounds treatment • (1) Add cpds to each well by Tecan HP D300E. The top dose is […], 3-fold dilution and 9 doses. DMSO final concentration will be normalized to 0.2%. • (2) Incubate the assay plate at 37° C., 5% CO2 for 7 days. Day 7: Plate read • (1) Equilibrate the assay plate to the room temperature for nearly 30 minutes. • (2) Add […] CellTiter-Glo reagent to each well and shake the plate for 1 min, incubate 10 min and keep them from light. • (3) Detect the plate by EnVision. Data analysis:
Max: Average of the DMSO group Min: Average of medium group.

NCI-H226 cells [2] = experiment: NCI-H226 proliferation assay (in house); settings: Homo sapiens, 120 h, 5 days, Cell TiterGlo, 20-point 1:2 dilution from 20 μM
Summary of the method: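 Viability by CellTiter-Glo luminescence after 5-day compound exposure at 37 °C, 5% CO2. Compounds added 24 h post-seeding (500 cells/well, RPMI 1640 with 10% FBS) as 20-point, 2-fold series from 20 μM final, triplicate wells.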

[3] = tested on: transcriptional activity of TEADs; experiment: TEAD reporter assay (MCF7 TEAD-LUC reporter cells); settings: Homo sapiens, 24 hours, BrightGlo luminescence
Summary of the method: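 Luminescence (BrightGlo) was read after 24 h of compound treatment at 37 °C, 5 % CO2. Cells had been seeded at 5,000 per well in DMEM with 10 % FBS and insulin and rested 24 h first. Dosing used 20 points, 1:2 dilution from 20 μM final, triplicates.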

SMILES | IC50 (NCI-H226 cells [1]) [µM] | IC50 (NCI-H226 cells [2]) [µM] | IC50 [3] [µM]
C=C(F)C(=O)N1CCN(c2nccnc2Oc2ccc(C(F)(F)F)nc2)CC1 [Example 78, 2-fluoro-1-(4-(3-((6-(trifluoromethyl)pyridin-3-yl)oxy)pyrazin-2-yl)piperazin-1-yl)prop-2-en-1-one] | 0.009 | 0.032 | 0.0021
C=C(F)C(=O)N1CC=C(c2nccnc2Oc2ccc(C(F)(F)F)nc2)CC1 [Example 85, 2-fluoro-1-(4-(3-((6-(trifluoromethyl)pyridin-3-yl)oxy)pyrazin-2-yl)-3,6-dihydropyridin-1(2H)-yl)prop-2-en-1-one] | 0.011 | 0.016 | 0.0016
C=C(F)C(=O)N1CCN(c2nccnc2Oc2cnc(C(F)(F)F)nc2)CC1 [Example 88, 2-fluoro-1-(4-(3-((2-(trifluoromethyl)pyrimidin-5-yl)oxy)pyrazin-2-yl)piperazin-1-yl)prop-2-en-1-one] | 0.027 | 0.047 | 0.0019
C=CC(=O)N1CC=C(c2nccnc2Oc2cnc(C(F)(F)F)nc2)CC1 [Example 89, 1-(4-(3-((2-(trifluoromethyl)pyrimidin-5-yl)oxy)pyrazin-2-yl)-3,6-dihydropyridin-1(2H)-yl)prop-2-en-1-one] | 0.033 | 0.164 | 0.0018
C=C(F)C(=O)N1CC=C(c2nccnc2Oc2cnc(C(F)(F)F)nc2)CC1 [Example 90, 2-fluoro-1-(4-(3-((2-(trifluoromethyl)pyrimidin-5-yl)oxy)pyrazin-2-yl)-3,6-dihydropyridin-1(2H)-yl)prop-2-en-1-one] | 0.031 | 0.033 | 0.0059
C=CC(=O)N1CCN(c2nccnc2N2CC3(CC(C(F)(F)F)C3)C2)CC1 [Example 110, 1-(4-(3-(6-(trifluoromethyl)-2-azaspiro[3.3]heptan-2-yl)pyrazin-2-yl)piperazin-1-yl)prop-2-en-1-one] | 0.046 | 0.067 | 0.003
C=CC(=O)N1CCC(c2cncnc2Oc2ccc(C(F)(F)F)nc2)CC1 [Example 126, 1-(4-(4-((6-(trifluoromethyl)pyridin-3-yl)oxy)pyrimidin-5-yl)piperidin-1-yl)prop-2-en-1-one] | 0.339 | 0.364 | 0.0191
C=CC(=O)N1CC=C(c2cnc(C)nc2Oc2ccc(C(F)(F)F)nc2)CC1 [Example 129, 1-(4-(2-methyl-4-((6-(trifluoromethyl)pyridin-3-yl)oxy)pyrimidin-5-yl)-3,6-dihydropyridin-1(2H)-yl)prop-2-en-1-one] | 0.137 | 0.104 | 0.0012
C=CC(=O)N1CC=C(c2cccnc2Oc2ccc(C(F)(F)F)nc2)CC1 [Example 153, 1-(2-((6-(trifluoromethyl)pyridin-3-yl)oxy)-3′,6′-dihydro-[3,4′-bipyridin]-1′(2′H)-yl)prop-2-en-1-one] | 0.065 | 0.034 | 0.0014
C=C(F)C(=O)N1CC=C(c2cccnc2Oc2ccc(C(F)(F)F)nc2)CC1 [Example 154, 2-fluoro-1-(2-((6-(trifluoromethyl)pyridin-3-yl)oxy)-3′,6′-dihydro-[3,4′-bipyridin]-1′(2′H)-yl)prop-2-en-1-one] | 0.02 | 0.05 | 0.0029
C=CC(=O)N1CC=C(c2cccnc2Oc2cnc(C(F)(F)F)nc2)CC1 [Example 157, 1-(2-((2-(trifluoromethyl)pyrimidin-5-yl)oxy)-3′,6′-dihydro-[3,4′-bipyridin]-1′(2′H)-yl)prop-2-en-1-one] | 0.013 | 0.132 | 0.0016
C=CC(=O)N1CCC(c2cccnc2Oc2cnc(C(F)(F)F)nc2)CC1 [Example 159, 1-(4-(2-((2-(trifluoromethyl)pyrimidin-5-yl)oxy)pyridin-3-yl)piperidin-1-yl)prop-2-en-1-one] | 0.051 | 0.022 | 0.0018

Results, then the molecule that gave them:

IC50 (NCI-H226 cells [1]) [µM] | IC50 (NCI-H226 cells [2]) [µM] | IC50 [3] [µM] | SMILES
0.121 | 0.449 | 0.0024 | C=CC(=O)N1CC=C(c2nccnc2Oc2ccc(C(F)(F)F)cn2)CC1 [Example 74, 1-(4-(3-((5-(trifluoromethyl)pyridin-2-yl)oxy)pyrazin-2-yl)-3,6-dihydropyridin-1(2H)-yl)prop-2-en-1-one]
0.047 | 0.025 | 0.0014 | C=CC(=O)N1CCN(c2nccnc2Oc2cnc(C(F)(F)F)nc2)CC1 [Example 87, 1-(4-(3-((2-(trifluoromethyl)pyrimidin-5-yl)oxy)pyrazin-2-yl)piperazin-1-yl)prop-2-en-1-one]
0.017 | 0.018 | 0.00084 | C=CC(=O)N1CCN(c2nccnc2OC2CCC(C(F)(F)F)CC2)CC1 (stereo not drawn) [Example 94, 1-(4-(3-((4-(trifluoromethyl)cyclohexyl)oxy)pyrazin-2-yl)piperazin-1-yl)prop-2-en-1-one]
0.089 | 0.012 | 0.0036 | C=CC(=O)N1CCN(c2nccnc2C(=O)c2ccc(C(F)(F)F)nc2)CC1 [Example 96, 1-(4-(3-(6-(trifluoromethyl)nicotinoyl)pyrazin-2-yl)piperazin-1-yl)prop-2-en-1-one]
0.05 | 0.004 | 0.0011 | C=CC(=O)N1CCN(c2nccnc2N2CCC(C(F)(F)F)CC2)CC1 [Example 105, 1-(4-(3-(4-(trifluoromethyl)piperidin-1-yl)pyrazin-2-yl)piperazin-1-yl)prop-2-en-1-one]
0.049 | 0.018 | 0.0007 | C=CC(=O)N1CCN(c2nccnc2N2CC(c3ccc(F)cc3)C2)CC1 [Example 107, 1-(4-(3-(3-(4-fluorophenyl)azetidin-1-yl)pyrazin-2-yl)piperazin-1-yl)prop-2-en-1-one]
0.032 | 0.04 | 0.0027 | C=CC(=O)N1CCN(c2nc(C)c(C)nc2Nc2ccc(C(F)(F)F)nc2)CC1 [Example 113, 1-(4-(5,6-dimethyl-3-((6-(trifluoromethyl)pyridin-3-yl)amino)pyrazin-2-yl)piperazin-1-yl)prop-2-en-1-one]
0.042 | 0.012 | 0.0032 | C=CC(=O)N1CCN(c2ccnnc2Nc2ccc(C(F)(F)F)cc2)CC1 [Example 119, 1-(4-(3-((4-(trifluoromethyl)phenyl)amino)pyridazin-4-yl)piperazin-1-yl)prop-2-en-1-one]
0.082 | 0.179 | 0.0016 | C=CC(=O)N1CCN(c2nc(C)ncc2Nc2ccc(C(F)(F)F)cc2)CC1 [Example 128, 1-(4-(2-methyl-5-((4-(trifluoromethyl)phenyl)amino)pyrimidin-4-yl)piperazin-1-yl)prop-2-en-1-one]
0.134 | 2.4 | 0.054 | C=CC(=O)N1CCC(c2ncccc2Oc2ccc(C(F)(F)F)nc2)CC1 [Example 138, 1-(4-(3-((6-(trifluoromethyl)pyridin-3-yl)oxy)pyridin-2-yl)piperidin-1-yl)prop-2-en-1-one]
0.017 | 0.029 | 0.0024 | C=CC(=O)N1CC=C(c2cccnc2Nc2ccc(C(F)(F)F)nc2)CC1 [Example 145, 1-(2-((6-(trifluoromethyl)pyridin-3-yl)amino)-3′,6′-dihydro-[3,4′-bipyridin]-1′(2′H)-yl)prop-2-en-1-one]
0.018 | 0.015 | 0.0018 | C=CC(=O)N1CCC(c2cccnc2Oc2ccc(C(F)(F)F)nc2)CC1 [Example 155, 1-(4-(2-((6-(trifluoromethyl)pyridin-3-yl)oxy)pyridin-3-yl)piperidin-1-yl)prop-2-en-1-one]
0.015 | 0.02 | 0.0006 | C=CC(=O)N1CCC(n2nc(C)cc2C(=O)c2ccc(C(F)(F)F)cc2)CC1 [Example 166, 1-(4-(3-methyl-5-(4-(trifluoromethyl)benzoyl)-1H-pyrazol-1-yl)piperidin-1-yl)prop-2-en-1-one]
0.026 | 0.034 | 0.00044 | N#C/C=C/C(=O)N1CCN(c2nccnc2Nc2ccc(C(F)(F)F)cc2)CC1 [Example 181, (E)-4-oxo-4-(4-(3-((4-(trifluoromethyl)phenyl)amino)pyrazin-2-yl)piperazin-1-yl)but-2-enenitrile]
